34 compounds from ChEMBL document CHEMBL3407363, “Vitamin D3 analogues that contain modified A- and seco-B-rings as hedgehog pathway inhibitors” (Eur J Med Chem, 2015) can be followed below.

Series [1] concerns the target T1, Vitamin D3 receptor (Mus musculus, UniProt P48281).
T1 sequence (P48281 whole entry): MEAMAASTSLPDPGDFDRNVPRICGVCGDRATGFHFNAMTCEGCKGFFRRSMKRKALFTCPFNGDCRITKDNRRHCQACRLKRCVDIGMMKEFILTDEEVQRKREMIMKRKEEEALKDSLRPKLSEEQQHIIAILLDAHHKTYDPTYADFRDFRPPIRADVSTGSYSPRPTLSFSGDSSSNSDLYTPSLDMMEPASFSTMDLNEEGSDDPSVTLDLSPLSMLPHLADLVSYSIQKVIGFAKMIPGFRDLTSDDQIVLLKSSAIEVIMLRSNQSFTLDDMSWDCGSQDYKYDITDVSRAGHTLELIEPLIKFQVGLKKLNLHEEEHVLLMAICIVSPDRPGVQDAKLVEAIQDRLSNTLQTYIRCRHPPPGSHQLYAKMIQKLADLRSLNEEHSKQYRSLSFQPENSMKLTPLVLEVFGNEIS
Briefly: Activation of VDR in mouse ASZ cells assessed as up-regulation of Cyp24A1 mRNA at 5 uM after 24 hrs by quantitative PCR analysis relative to control. It is filed as ADME, cell-based.

Series [2] has as its target T2, Vitamin D3 receptor (Homo sapiens) (UniProt P11473).
T2 sequence (whole entry): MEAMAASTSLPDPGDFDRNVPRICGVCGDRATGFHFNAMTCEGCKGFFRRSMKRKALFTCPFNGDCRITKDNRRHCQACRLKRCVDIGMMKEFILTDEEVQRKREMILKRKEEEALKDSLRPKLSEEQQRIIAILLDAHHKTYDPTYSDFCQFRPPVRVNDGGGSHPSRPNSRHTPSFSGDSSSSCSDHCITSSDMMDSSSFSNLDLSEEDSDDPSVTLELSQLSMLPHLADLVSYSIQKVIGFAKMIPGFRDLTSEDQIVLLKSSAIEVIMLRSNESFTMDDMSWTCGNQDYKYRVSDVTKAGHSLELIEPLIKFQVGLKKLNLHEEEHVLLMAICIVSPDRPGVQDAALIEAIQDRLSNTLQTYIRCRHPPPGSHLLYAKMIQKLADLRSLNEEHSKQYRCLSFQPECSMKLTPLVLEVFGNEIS
The experiment in a line: Binding affinity to full length human VDR by fluorescent displacement assay.

The nature of series [3]: Inhibition of hedgehog signaling in mouse C3H10T1/2 cells assessed as reduction in Gli1 mRNA level after 24 hrs by quantitative PCR analysis. The class given is cell-based. The note with it: for inhibition: C3H 10T1/2; for IC50: C3H 10T1/2, 24 h.
The nature of series [4]: Inhibition of hedgehog signaling in mouse C3H10T1/2 cells assessed as reduction in Gli1 mRNA level at 5 uM after 24 hrs by quantitative PCR analysis relative to control. The settings on record: C3H 10T1/2, values are per cent of control. The class given is cell-based.
The target in series [5] is T1, Vitamin D3 receptor. The experiment in a line: Activation of VDR in mouse ASZ cells assessed as up-regulation of Cyp24A1 mRNA at 2.5 uM after 24 hrs by quantitative PCR analysis relative to control. It is filed as ADME, cell-based.

Molecules are shown by their SMILES. Where only a bound is given, the exact number is not on record here.

In general, IC50 refers to the point on the concentration scale where inhibition reaches its midpoint. With `CC(C)CCC[C@@H](C)[C@H]1CC[C@H]2/C(=C/C(=O)Nc3cccc(O)c3)CCC[C@]12C`, the Activity at Vitamin D3 receptor [1] is reported as 4.5%. In series [2], the K is over 100 µM. In addition, in series [3], the inhibition result was “Dose-dependent effect” and the 50% inhibitory concentration (IC50) was found to be 1000 nM. Also, in series [4], the response, % of control stood at 12.1%.
For `CC(C)CCC[C@@H](C)[C@H]1CC[C@H]2/C(=C/CO)CCC[C@]12C`, in series [4], the response, % of control worked out at 15.1%.
Same read-out and setting: as for `CC(C)CCC[C@@H](C)[C@H]1CC[C@H]2/C(=N/O)CCC[C@]12C`, the figure is 86.1%.
The same measure, in the same setting: as for `CC(C)CCC[C@@H](C)[C@H]1CC[C@H]2[C@@H](OC(=O)CCc3ccc(O)cc3)CCC[C@]12C`, the figure is 20.1%; as for `CC(C)CCC[C@@H](C)[C@H]1CC[C@@H]2[C@]1(C)CCC[C@@]2(O)c1cccc(O)c1`, 39.5%; as for `CC(C)CCC[C@@H](C)[C@H]1CC[C@H]2[C@H](c3cccc(O)c3)CCC[C@]12C`, 47.9%.
Still for that read-out and setting: as for `CC(C)CCC[C@@H](C)[C@H]1CC[C@H]2[C@@H](O)CCC[C@]12C`, the figure is 46.4%; as for `CCOC(=O)/C=C1\CCC[C@]2(C)[C@@H]([C@H](C)CCCC(C)C)CC[C@@H]12`, 107%; as for `CC(C)CCC[C@@H](C)[C@H]1CC[C@H]2[C@@H](OC(=O)/C=C/c3ccc(O)cc3)CCC[C@]12C`, 62.1%.
For the compound `CC(C)CCC[C@@H](C)[C@H]1CC[C@H]2[C@@H](OC(=O)CCc3cccc(O)c3)CCC[C@]12C`, the Activity on Vitamin D3 receptor [1] is 7.6%. In addition, the K in series [2] is over 100 µM. In series [3], the inhibition entry was “Dose-dependent effect” and the concentration for half-maximal inhibition (IC50) was determined as 2600 nM. For the same compound, the response, % of control in series [4] was 15.3%.
Consider `CC(C)CCC[C@@H](C)[C@H]1CC[C@H]2C(c3cccc(O)c3)=CCC[C@]12C`, for which, in series [4], the response, % of control was 37.2%.
Same read-out and setting: as for `CC(C)CCC[C@@H](C)[C@H]1CC[C@H]2[C@H](O)CCC[C@]12C`, the figure is 74%.
In the case of `CC(C)CCC[C@@H](C)[C@H]1CC[C@H]2[C@@H](Nc3ccccc3O)CCC[C@]12C`, the Activity at Vitamin D3 receptor [1] was 4.4%. In series [2], this compound returned a K of over 100 µM. Further, in series [3], the inhibition entry is “Dose-dependent effect” and the IC50 worked out at 1200 nM. Further, the response, % of control in series [4] was found to be 2%.
As to `CC(C)CCC[C@@H](C)[C@H]1CC[C@H]2[C@@H](Nc3cccc(O)c3)CCC[C@]12C`, the Activity on Vitamin D3 receptor [1] is recorded as 1.8%. In series [2], the K was over 100 µM. In series [3], the inhibition entry was “Dose-dependent effect” and the half-maximal inhibitory concentration (IC50) turned out to be 1000 nM. The response, % of control in series [4] came out at 11.6%.
Turning to `CC(C)CCC[C@@H](C)[C@H]1CC=C2[C@H](O)CCC[C@@]21C`, the response, % of control in series [4] was found to be 90.1%.
The same measure, in the same setting: as for `CC(C)CCC[C@@H](C)[C@H]1CC[C@H]2[C@@H](OC(=O)/C=C/c3ccccc3O)CCC[C@]12C`, the figure is 94.2%; as for `CC(C)CCC[C@@H](C)[C@H]1CC=C2C(=O)CCC[C@@]21C`, 63.4%.
As for `CC(C)CCC[C@@H](C)[C@H]1CC[C@H]2/C(=C/C(=O)Nc3ccc(O)cc3)CCC[C@]12C`, the Activity on Vitamin D3 receptor [1] is recorded as 4.4%. The compound further had a K in series [2] of over 100 µM. Also, in series [3], the inhibition result is “Dose-dependent effect” and the IC50 turned out to be 1200 nM. For the same compound, in series [4], the response, % of control was 1.8%.
For `CC(C)CCC[C@@H](C)[C@H]1CC[C@@H]2[C@@H](O)CCC[C@]12C`, in series [4], the response, % of control came out at 48.7%.
Regarding `CC(C)CCC[C@@H](C)[C@H]1CC[C@H]2C(=O)CCC[C@]12C`, the response, % of control in series [4] was found to be 66.1%.
Regarding `CC(C)CCC[C@@H](C)[C@H]1CC[C@H]2[C@@H](OC(=O)c3cccc(O)c3)CCC[C@]12C`, the Activity on Vitamin D3 receptor [1] worked out at 1.9%. In series [2], the K was over 100 µM. In series [3], the inhibition entry is “Dose-dependent effect” and the IC50 stood at 740 nM. For the same compound, the response, % of control in series [4] stood at 1.9%.
On to `CC(C)CCC[C@@H](C)[C@H]1CC[C@H]2[C@H](Nc3ccc(O)cc3)CCC[C@]12C`, for which the Activity at Vitamin D3 receptor [1] is 3%. The compound further displayed a K in series [2] of over 100 µM. In addition, in series [3], the inhibition entry is “Dose-dependent effect” and the IC50 was determined as 320 nM. For the same compound, in series [4], the response, % of control amounted to 1.3%.
The corresponding values for `CC(C)CCC[C@@H](C)[C@H]1CC[C@H]2[C@@H](OC(=O)Cc3cccc(O)c3)CCC[C@]12C` are 3.5%, over 100 µM, “Dose-dependent effect”, 790 nM and 1.8%.
With `CC(C)CCC[C@@H](C)[C@H]1CC[C@H]2[C@H](OC(=O)c3cccc(O)c3)CCC[C@]12C`, the Activity at Vitamin D3 receptor [1] was determined as 1.6%. The K in series [2] is over 100 µM. In series [3], the inhibition result is “Dose-dependent effect” and the IC50 came out at 3900 nM. For the same compound, in series [4], the response, % of control is 30.6%.
In the case of `CC(C)CCC[C@@H](C)[C@H]1CC[C@H]2[C@@H](Nc3ccc(O)cc3)CCC[C@]12C`, at Vitamin D3 receptor [1], the Activity is given as 2.7%. For the same compound, the K in series [2] was over 100 µM. In series [3], the inhibition result is “Dose-dependent effect” and the half-maximal inhibitory concentration (IC50) is 400 nM. For the same compound, the response, % of control in series [4] is 0.7%.
For `CC(C)CCC[C@@H](C)[C@H]1CC[C@H]2[C@@H](OC(=O)CCc3ccccc3O)CCC[C@]12C`, in series [4], the response, % of control came out at 47.4%.
For the compound `CC(C)CCC[C@@H](C)[C@H]1CC[C@H]2/C(=C/C(=O)Nc3ccccc3O)CCC[C@]12C`, the Activity at Vitamin D3 receptor [1] is on record as 14%. In series [2], this compound came in with a K of over 100 µM. Besides, in series [3], the inhibition result is “Dose-dependent effect” and the concentration for half-maximal inhibition (IC50) stood at 1500 nM. The response, % of control in series [4] came to 1.1%.
On the same counts, the results for `CC(C)CCC[C@@H](C)[C@H]1CC[C@H]2[C@H](C(=O)c3cccc(O)c3)CCC[C@]12C` are 7.8%, over 100 µM, “Dose-dependent effect”, 1800 nM and 11%.
As for `C=C1CC[C@H](O)C/C1=C/C=C1\CCC[C@]2(C)[C@@H]([C@H](C)CCCC(C)C)CC[C@@H]12` [CHOLECALCIFEROL], in series [2], the K is over 100 µM. In series [3], the inhibition entry was “Dose-dependent effect” and the IC50 was found to be 4100 nM. Moreover, in series [4], the response, % of control was 35.7%. Further, the Activity on Vitamin D3 receptor [5] is given as 764%.
On to `CC(C)CCC[C@@H](C)[C@H]1CC[C@H]2[C@@H](NC(=O)c3cccc(O)c3)CCC[C@]12C`, for which the Activity at Vitamin D3 receptor [1] was 1.8%. The same compound showed a K in series [2] of over 100 µM. For the same compound, in series [3], the inhibition result is “Dose-dependent effect” and the 50% inhibitory concentration (IC50) turned out to be 980 nM. Moreover, in series [4], the response, % of control was 2.5%.
As to `CC(C)CCC[C@@H](C)[C@H]1CC[C@H]2[C@@H](OC(=O)/C=C/c3cccc(O)c3)CCC[C@]12C`, the response, % of control in series [4] was determined as 57.2%.
Consider `CC(C)CCC[C@@H](C)[C@H]1CC[C@H]2/C(=C/C(=O)Nc3ccccc3)CCC[C@]12C`, for which the response, % of control in series [4] came to 41.7%.
The same measure, in the same setting: as for `CC(C)CCC[C@@H](C)[C@H]1CC[C@H]2[C@H](CO)CCC[C@]12C`, the figure is 55.1%.
Take `CC(C)CCC[C@@H](C)[C@H]1CC[C@H]2[C@H](CCO)CCC[C@]12C`: the Activity on Vitamin D3 receptor [1] was determined as 1.3%. For the same compound, in series [2], the K is over 100 µM. For the same compound, in series [3], the inhibition entry is “Dose-dependent effect” and the 50% inhibitory concentration (IC50) came out at 2400 nM. Further, the response, % of control in series [4] amounted to 2.8%.
